pIC50: −log10 of the molar value. Where “and” joins values, the source holds several entries; their conditions need not be identical. Equal values may be shown once. Read-outs that look alike come from different tables or passages of the source.
Experiments:
NCI-60 panel cell lines = assay: NCI-60 panel growth inhibition screen; assay type: cell-based; details: for GI50: nominal concentration
From the text: FIGS. 7a-h show the inhibitory potencies of compound 1 in the cell lines of the NCI panel from various cancers. The growth of cells treated with various concentrations of compound 1 was expressed in reference to untreated controls (100%) after 48 hr exposure. Negative growth values represent cell death. Actual concentrations of compound 1 are about two times lower than nominal due to well binding in the 96-well plate format.
FIG. 8 represents the GI50 (50% growth inhibition, cross-hatch bars) and TGI (total growth inhibition, solid bars) values of all cells in the NCI-60 panel in relation to the attainable free mouse plasma concentration of orally applied compound 1, corrected for the reduction in actual inhibitor concentration by well binding. The oncogenic mutation spectrum of the cell lines is presented at the bottom.
To further exemplify the breadth of anti-tumor activity of compounds 1-4 the NCI-60 panel was screened with compound 1. The spectrum of verified oncogenic driver mutations in these cell lines was recently elucidated to encompass mutations in raf, ras, CDKN2A (cdk inhibitor), p53, PI3K, PTEN, EGFR, APC, FLT3, RB1 among others. Cell lines generally have several of these mutations representative of stage III and IV cancers [Ikediobi et al., Mol. Cancer. Ther. 5, 2606-2612 (2006)]. […] The average concentration for total growth inhibition (TGI) was thus at 200 nM, i.e. about 10-times GI50. At sustained free plasma concentrations in vivo of about 200 nM, that can be achieved with practical forms of oral dosing and in the absence of special formulations, all cell lines would be inhibited by more than 50% without exception, and more than half would show no growth at all or would be killed (FIG. 8).

GSK3 = assay: Kinase inhibition under standard conditions, GSK3; assay type: biochemical
[1] = tested on: MDA-MB-231 breast cancer cell line; assay: Long-term growth inhibition, crystal violet staining; assay type: cell-based, human
Method: The human estrogen receptor and EGF receptor negative MDA-MB-231 (HTB 26) breast cancer cell line (obtained from ATCC, Rockville, USA) were cultured in McCoy's 5A medium containing L-glutamine, 2.2 g/l NaHCO3 and 5% fetal calf serum. Cells were maintained in a water saturated atmosphere (95% air/5% carbon dioxide) at 37° C. in 75-cm^2 culture flasks, and were serially passaged following trypsinization using 0.05% trypsin/0.02% EDTA.
(§1) For proliferation assays tumor cell suspensions (100 μl/well) were seeded into 96-well flat bottomed microtitration plates at a density of ca. 15 cells/microscopic field (magnification 320×). After 2-3 days the culture medium was removed by suction and replaced by fresh medium (200 μl/well) containing varying concentrations of the compound of the formula 1 or vehicle (0.5% DMSO). Compound 1 was added as […] concentrated feed solutions. On every plate 16 wells served as controls and 16 wells were used per concentration of 1. After various times of incubation the cells were fixed with glutardialdehyde and stored in a refrigerator. At the end of the assay all plates were processed simultaneously (staining with 0.02% aqueous crystal violet solution (100 μl/well). Excess dye was removed by rinsing the trays with water for 20 min. The stain bound by the cells was redissolved in 70% ethanol (180 μl/well) while shaking the microplates for about 3 hours. Absorbance (proportional to cell mass) was measured at 578 nm using a BIOTEK 309 Autoreader. The results (mean values±standard deviation) were plotted as growth curves.

U251 xenograft = assay: Mouse xenograft model U251; assay type: in vivo; details: Brain, CDKN2A/p53/PTEN; oral twice daily dosing
Method: The efficacy of the compound of the formula 1 was confirmed in mouse tumor xenograft models, employing the NMRI(nu/nu) strain of mice. For example, cells from the human tumor cell lines MDA-MB-231, U373, and HT29 were pre-incubated subcutaneously in several nude mice to select for the most robustly growing cell population. After having grown to a sufficient size after 2-3 weeks, a piece of about 2 mm^3 volume of the most suitable tumor was transplanted subcutaneously into the region of the thoracic mammary fat pads, an area ensuring a high degree of vascularization of the grafted tissue. […] During the course of the treatment, the weight of the animals and the size of the transplanted tumor was monitored three times a week. […] These doses are best determined separately for each individual mouse strain employed.
To establish a solid tumour 3×10^6 tumor cells suspended in 100 μl of serum free medium (RPMI) were inoculated subcutaneously into the region of the thoracic mammary fat pads of 5 Male NMRI(nu/nu) mice of 8-10 weeks of age. […] During the course of the treatment body weight changes and tumor growth were recorded three times a week. Growth curves were plotted together with standard deviations and the significance of differences was determined using an unpaired t-test in FIG. 11. […]

[2] = tested on: HT29 colon cancer cell line; assay: Long-term growth inhibition, crystal violet staining; assay type: cell-based, human; details: 10 nM
Method: as §1
The HT29 human colon cancer cell line (obtained from ATCC, Rockville, USA) was cultured as above. Treatment with the compound of the formula 1 and analysis of growth inhibition was performed analogous to Example 3.

HT29 xenograft = assay: Mouse xenograft model HT29; assay type: in vivo
Method: The efficacy of the compound of the formula 1 was confirmed in mouse tumor xenograft models, employing the NMRI(nu/nu) strain of mice. For example, cells from the human tumor cell lines MDA-MB-231, U373, and HT29 were pre-incubated subcutaneously in several nude mice to select for the most robustly growing cell population. After having grown to a sufficient size after 2-3 weeks, a piece of about 2 mm^3 volume of the most suitable tumor was transplanted subcutaneously into the region of the thoracic mammary fat pads, an area ensuring a high degree of vascularization of the grafted tissue. When tumors reached a diameter of about 3 mm mice were assigned to treatment groups with about equal average tumor sizes, and therapy was started. Application of the compound of the formula 1 was performed preferably by oral gavage twice daily for continuous exposure, with doses between 1 and 10 mg/kg of the compound of the formula 1 as a solid suspension in water, or in aqueous liquid formulations containing common adjuvants, like polyethylene glycols (PEG), preferentially in form of a salt with a physiologically applicable acid, including but not limited to hydrochloric acid, phosphoric acid, lactic acid, malonic acid, citric acid, etc. Other suitable adjuvants include but are not limited to polyvinyl pyrrolidone (Povidone) of varying average molecular weights. During the course of the treatment, the weight of the animals and the size of the transplanted tumor was monitored three times a week. For maximum efficacy, a daily treatment regimen was chosen at the maximally applicable dose, as defined by the absence of significant weight loss over the course of the treatment. These doses are best determined separately for each individual mouse strain employed.
To establish a solid tumour 3×10^6 tumor cells suspended in 100 μl of serum free medium (RPMI) were inoculated subcutaneously into the region of the thoracic mammary fat pads of 5 Male NMRI(nu/nu) mice of 8-10 weeks of age. After 3-4 weeks tumor bearing mice were killed by cervical dislocation and the tumor of one selected donor mouse was excised under sterile conditions. Vital tumor regions were cut into 2 mm^3 pieces, picked up by a trocar (13 ga), and transplanted subcutaneously into NMRI(nu/nu) of the same stock. The tumor grade of the transplanted tissue was checked by routine histopathology (HE staining). Tumor growth and body weight were registered weekly during tumor establishment. When subcutaneous tumors reached diameters of about 3 mm the animals were randomly assigned to a treatment and a vehicle control group, each consisting of 10-12 animals, and a therapeutic regimen was started comprising twice daily applications by oral gavage of 2.5 mg/kg of compound 1 in a vehicle of 50 mM (−)-lactic acid in 50% polyethylene glycol 400. During the course of the treatment body weight changes and tumor growth were recorded three times a week. Growth curves were plotted together with standard deviations and the significance of differences was determined using an unpaired t-test in FIG. 11. In untreated mice tumor areas had grown after 9 days by about 150%, while in the treated group average tumor areas had grown only by about 50% (P=0.012).

[3] = Colon, Raf/PI3K/p53/APC, 2.5 mg/kg p.o. twice daily, 30 days

## CNC(=O)[C@@]1(N)C[C@H]2O[C@]1(C)n1c3ccccc3c3c4c(c5c6ccccc6n2c5c31)C(=O)NC4 [Compound 1]
NCI-60 panel cell lines; 48 hr exposure
  average concentration for total growth inhibition (TGI): 200 nM
NCI-60 panel cell lines; HT29, highest exposures
  cell kill of HT29 cell line in vitro: cannot be killed
NCI-60 panel cell lines; lung, colon, brain, skin, ovarian, kidney, prostate, breast cancer lines
  anti-proliferative activity across panel: Significant anti-proliferative activity was seen in all cell lines
NCI-60 panel cell lines; 48 hr exposure, read-out: GI50 potency range across cell lines
  GI50: ≤ 150 nM
NCI-60 panel cell lines; 48 hr exposure, read-out: average 50% growth inhibition (GI50) across all cell lines
  GI50: 32 nM
GSK3
  pIC50: 5.91
[1]; 10 nM, 1 week of exposure
  growth of MDA-MB-231 cells: almost completely prevents the growth
[1]; MDA-MB-231, single exposure 1 to 6 hrs, 100 nM
  prolonged effect on growth after a single short exposure: sustained inhibition over at least one week
[1]; MDA-MB-231 growth
  anti-tumor activity compared with cis-platin: substantially more potent and efficacious
  anti-tumor activity compared with vinblastine: matches the activity of vinblastine
U251 xenograft
  Mean % Inhibition: 74%
  N tumors with no/neg. growth: 3 of 11
[2]
  proliferation of HT29 cells: sufficient to block the proliferation
HT29 xenograft; 30 days of continuous treatment, all 11 animals
  signs of organ toxicity in heart, lung, kidney, liver, duodenum, and colon: complete absence of any signs of organ toxicity
HT29 xenograft; 30 days, 2.5 mg/kg p.o. twice daily
  effect on body weight: absence of any significant effect on body weight
HT29 xenograft; 30 days, oral route
  irritation in the mucosal layers of duodenum and colon tissues: absence of any signs of irritation
HT29 xenograft; [3]
  Mean % Inhibition: 70%
  N tumors with no/neg. growth: 2 out of 10 and 2 of 11
HT29 xenograft; after 9 days, 2.5 mg/kg p.o. twice daily
  growth of average tumor areas in treated group: about 50%

— patent US8022056B2, “Compositions and methods for the treatment of cancer” (Tautatis, Inc, priority 2006, dated 2011)
